PubChem BioAssay (NCI)
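Following 48 hours of exposure in 96-well plates, responses at five concentrations were used to interpolate endpoints linearly. At the TGI there is no net growth.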 Where a SMILES comes first, the peptide text is derived from it. [ ]: non-standard residue; d: D form. The star is where a group is joined. Phe(4-NO2) = N[CH](Cc1ccc([N+](=O)[O-])cc1)C(=O)O; Cbz = O=C(OCc1ccccc1)*

Experiments:
Test in all cases: NCI tumour cell line growth inhibition, 48 h
[1] = test system: SK-OV-3 ovarian
[2] = test system: BT-549 breast
[3] = test system: HOP-92 NSCLC
[4] = test system: NCI-H460 lung
[5] = test system: MDA-MB-231 breast
[6] = test system: DU-145 prostate
[7] = test system: MCF7 breast
[8] = test system: SK-MEL-28 melanoma
[9] = test system: TK-10 renal
[10] = test system: MDA-MB-435
[11] = test system: IGROV1 ovarian
[12] = test system: T-47D breast
[13] = test system: HCT-15 colon
[14] = test system: UACC-62 melanoma
[15] = test system: RPMI-8226 leukemia
[16] = test system: SR leukemia
[17] = test system: COLO 205 colon
[18] = test system: OVCAR-5 ovarian
[19] = test system: MALME-3M melanoma

Structure (SMILES)	TGI [1] [µM]	TGI [2] [µM]	TGI [3] [µM]	TGI [4] [µM]	TGI [5] [µM]	TGI [6] [µM]	TGI [7] [µM]	TGI [8] [µM]	TGI [9] [µM]	TGI [10] [µM]	TGI [11] [µM]	TGI [12] [µM]	TGI [13] [µM]	TGI [14] [µM]	TGI [15] [µM]	TGI [16] [µM]	TGI [17] [µM]	TGI [18] [µM]	TGI [19] [µM]
Cc1cccc(NC(=S)Nc2ccc([N+](=O)[O-])cc2)n1	> 100	> 100	> 100	> 100	> 100	> 100	> 100	> 100	> 100	> 100	> 100	> 100	> 100	> 100	> 100	> 100	> 100	–	–
CCCCC(C(=O)N/N=C/c1ccc([N+](=O)[O-])o1)C(=O)N/N=C/c1ccc([N+](=O)[O-])o1	50.9	17.2	4.08	35.6	12	42.9	22.4	14.7	7.73	25.2	4.22	7.69	6.47	11.5	3.18	–	14.7	7.23	7.93
CC1C(=NO)C(C)C(c2ccccc2)N(N=O)C1c1ccccc1 (stereo not drawn)	22.7	89.8	49.3	32.1	32.9	90.8	> 100	32.3	55.7	44.8	52.9	38.9	31.9	27.2	–	45.7	31.5	–	34.6
[O-]c1c[n+](CCCC[n+]2cc([O-])on2)no1	> 100	> 100	> 100	> 100	> 100	> 100	> 100	> 100	> 100	> 100	> 100	> 100	> 100	> 100	> 100	–	> 100	> 100	> 100
Cc1ccc(-c2cc(-c3ccc(Cl)cc3)nc(/N=C3\C(=O)N(CN4CCOCC4)c4ccccc43)n2)cc1	> 100	88.5	62.7	50.8	> 100	> 100	> 100	> 100	81.7	35	39.3	> 100	> 100	41.4	–	–	79.8	67.9	69.4
Cc1ccccc1[P+](C)(c1ccccc1C)c1ccccc1C	> 100	63.1	58	> 100	35.2	> 100	> 100	35.8	36.8	21	33	12.9	48.2	25.7	3.96	–	22.4	33.5	22.9
N#CC1(C#N)NC(c2cccnc2)C(C#N)(C#N)NC1c1cccnc1 (stereo not drawn)	> 100	> 100	> 100	–	> 100	> 100	> 100	> 100	> 100	> 100	> 100	> 100	> 100	> 100	> 100	–	> 100	> 100	> 100
C=CCOc1ccc(/C(N=Nc2ccc(C)cc2)=N/NC(=O)c2ccccc2)cc1OC	–	47.1	41.8	48	> 100	> 100	83.6	51.3	> 100	47.3	62.1	45.3	> 100	31.6	–	25	66.1	> 100	76.9
CC1=[N+]([O-])C(C)(C)N(N=O)C1(C)C	–	> 10	> 10	> 10	> 10	> 10	> 10	–	> 10	> 10	–	> 10	> 10	–	> 10	–	> 10	> 10	> 10
Cc1ccc2c3c(cnc2n1)C(=O)OCCN3C	–	> 100	> 100	> 100	> 100	> 100	> 100	> 100	> 100	> 100	> 100	> 100	> 100	> 100	–	> 100	> 100	> 100	–
CCOC(=O)CCC(NC(=O)OCc1ccccc1)C(=O)NC(CCC(=O)OCC)C(=O)NC(Cc1ccc([N+](=O)[O-])cc1)C(=O)NC(CCC(=O)OCC)C(=O)NC(CCC(=O)OCC)C(=O)OCC (stereo not drawn) (Cbz-E(OEt)E(OEt)[Phe(4-NO2)]E(OEt)E(OEt)-OEt; configuration not given here)	> 100	> 100	–	> 100	> 100	> 100	> 100	> 100	> 100	> 100	> 100	> 100	> 100	> 100	> 100	> 100	> 100	> 100	> 100
c1ccc(CSc2ccccc2CN2CCN(Cc3ccccc3SCc3ccccc3)CCN(Cc3ccccc3SCc3ccccc3)CC2)cc1	6.34	4.1	2	2.87	3.16	12.3	3.32	4.61	5.72	12	–	4.81	3.3	3.23	18	–	2.21	6.04	3.56
C1=Nc2ccc(cc2)N=Cc2ccccc2OCc2cccc(n2)COc2ccccc21	> 100	> 100	> 100	> 100	> 100	> 100	> 100	–	> 100	> 100	> 100	> 100	> 100	> 100	–	> 100	> 100	> 100	> 100
COc1ccc(CC2c3cc(OC)c(OC)c(OC)c3CC[N+]2(C)C)cc1Oc1ccc(CC2c3cc4c(c(OC)c3CC[N+]2(C)C)OCO4)cc1 (stereo not drawn)	> 100	> 100	> 100	> 100	> 100	> 100	> 100	> 100	> 100	> 100	> 100	> 100	> 100	> 100	–	> 100	> 100	> 100	> 100
COc1cccc(C(=O)Nc2c3ccccc3nc3ccccc23)c1OC	> 100	> 100	–	> 100	> 100	> 100	> 100	> 100	> 100	> 100	> 100	> 100	> 100	> 100	> 100	> 100	> 100	> 100	> 100
CC1=C(C#N)C23C(=O)c4ccccc4C(O)=C2C(=O)C=CC3(O)N1 (stereo not drawn)	> 100	3.38	6.38	31.1	43.5	7.69	4.59	5.23	35.7	9.37	17.2	> 100	> 100	6.4	–	1.5	> 100	36.3	3.86
CC(=O)OCC1OC(n2c(C#N)cc(=O)[nH]c2=O)CC1OC(C)=O (stereo not drawn)	> 100	> 100	> 100	> 100	> 100	> 100	> 100	> 100	> 100	> 100	> 100	> 100	> 100	> 100	–	> 100	> 100	> 100	> 100
NC(=O)NC(=O)CCC(NS(=O)(=O)c1ccccc1)C(=O)NC(N)=O (stereo not drawn)	> 100	> 100	> 100	> 100	> 100	> 100	> 100	> 100	> 100	> 100	> 100	> 100	> 100	> 100	–	> 100	> 100	> 100	> 100
NC1OC(COC(=O)c2ccccc2)C(O)C(OC(=O)c2ccccc2)C1OC(=O)c1ccccc1 (stereo not drawn)	> 100	40.6	59.1	27.9	45.9	> 100	68.2	42.7	> 100	46.7	35.9	> 100	> 100	29.4	> 100	–	50.3	48.1	36.3
Cc1cc(N)ccc1N=Nc1ccc(S(=O)(=O)CCOS(=O)(=O)O)cc1	–	14.6	19.5	12.2	–	> 100	11.8	19	27.5	0.502	13.9	> 59.1	11.3	20.3	> 45.4	> 100	6.08	26.4	20.5
COc1ccc(/C=N/n2c(=O)[nH]c3ccccc3c2=O)cc1	> 100	> 100	> 100	> 100	> 100	> 100	> 100	> 100	> 100	> 100	> 100	> 100	> 100	> 100	> 100	> 100	> 100	> 100	–
C=CC(CBr)CCC(Br)C(C)(C)Br (stereo not drawn)	> 10	> 10	> 10	> 10	> 10	> 10	> 10	> 10	> 10	> 10	> 10	> 10	> 10	–	> 10	–	> 10	> 10	> 10
O=C(NO)c1ccc(OCc2cccc(Cl)c2)cc1	66.1	48	51.4	26	43.2	> 47.3	> 100	65.1	32.3	44	23.3	> 61.5	29.9	21.7	> 58.9	> 28.5	51.7	> 40.8	–
O=C(Nc1cc2c(=O)[nH]c3ccccc3c2oc1=O)c1cnccn1	> 100	> 100	> 100	> 100	> 100	> 100	> 100	> 100	> 100	> 100	> 100	> 100	> 100	> 100	–	> 100	> 100	> 100	> 100
CC1=CC=C2c3ccccc3C=CN2C(=O)C1	> 100	56.3	–	> 100	> 100	> 100	> 100	> 100	84.9	> 100	> 100	> 100	> 100	> 100	> 100	> 100	> 100	> 100	> 100
O=C1C=CC(=O)c2c1cc([N+](=O)[O-])c1ccoc21	43.6	30.8	5	35.2	52.7	> 58.6	44.3	60	4.37	26.2	51.9	> 100	58.5	29.4	> 100	> 100	8.63	35.4	–
